Data on one compound can be found in patent US20050261298A1, “Methods of treating conditions associated with an Edg-7 receptor” (priority 2002, published 2005).

pIC50: −log10 of the molar value. Bounds are passed on as bounds.

One experiment has as its target T1, Edg-3 (Homo sapiens, UniProt Q99500).
T1 construct: expressed in transfected cells; host or cells: HTC rat hepatoma cells
Nature of the experiment: Calcium mobilization assay (FLIPR), inhibition of S1P-stimulated calcium increase. In kind it is cell-based. To be noted: HTC cells expressing Edg-3. In general terms: Calcium assays in cells follow changes in intracellular calcium, usually with a dye or a luminescent sensor.

Another experiment deals with T2, Edg-6 (Homo sapiens, UniProt O95977).
T2 construct: expressed in transfected cells; host or cells: HTC rat hepatoma cells
T2 sequence (O95977 1-384): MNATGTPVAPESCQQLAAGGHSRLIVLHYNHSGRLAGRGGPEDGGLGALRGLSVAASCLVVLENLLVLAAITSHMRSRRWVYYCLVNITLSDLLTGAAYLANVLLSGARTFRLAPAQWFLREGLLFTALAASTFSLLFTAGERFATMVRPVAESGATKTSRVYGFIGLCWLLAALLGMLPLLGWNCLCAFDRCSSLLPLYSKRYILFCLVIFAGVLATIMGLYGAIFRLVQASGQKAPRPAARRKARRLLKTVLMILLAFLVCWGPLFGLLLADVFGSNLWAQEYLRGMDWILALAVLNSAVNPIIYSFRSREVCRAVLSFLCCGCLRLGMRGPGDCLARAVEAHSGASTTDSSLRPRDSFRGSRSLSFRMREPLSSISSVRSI
The description is as above. As to conditions: HTC cells expressing Edg-6. In kind it is cell-based.

A further experiment concerns the target T3, Edg-8 (Homo sapiens, UniProt Q9H228).
T3 construct: expressed in transfected cells; host or cells: HTC rat hepatoma cells
The description is as above. The format is cell-based. As to conditions: HTC cells expressing Edg-8.

The subject of experiment [1] is Calcium Channel Type L, Dihydropyridine. The experiment is described as follows: Radioligand binding assay, 3H Nitrendipine. Also noted: species or system Wistar Rat. To be noted: significance criteria ≧50% of max stimulation or inhibition. Here is the method: (§1) In order to test the selectivity of compounds, various enzyme assays as well as radioligand binding assays were performed using numerous non-Edg receptor targets as listed below.
(§2) A radioligand binding assay was performed using adrenergic α1 according to the method of Greengrass and Bremner 1979, Eur. J. Pharmacol. 55:323-326. A radioligand binding assay was performed using adrenergic α2 according to the method of Boyajian and Leslie, 1987, J. Pharmacol. Exp. Ther. 241:1092-1098. A radioligand binding assay was performed using adrenergic β according to the method of Feve et al., 1994, Proc. Natl. Acad. Sci. USA 91:5677-5681. A radioligand binding assay was performed using angiotensin AT2 according to the method of Whitebread et al., 1991, Biochem. Biophys. Res. Comm. 181:1365-1371. A radioligand binding assay was performed using calcium channel Type L, dihydropyridine according to the method of Ehlert et al., 1982, Life Sci. 30:2191-2202. A radioligand binding assay was performed using dopamine D2L according to the method of Bunzo et al., 1988, Nature 336:783-787. A radioligand binding assay was performed using endothelin ETA according to the method of Mihara et al., 1994, J. Pharmacol. Exp Ther. 268:1122-1127. A radioligand binding assay was performed using histamine H1 Central according to the method of Hill et al., 1978, J. Neurochem. 31:997-1004. […]

In another experiment the target is T4, Endothelin ETA (Homo sapiens, UniProt P25101).
T4 construct: expressed in transfected cells; host or cells: CHO cells
T4 sequence (P25101 21-427): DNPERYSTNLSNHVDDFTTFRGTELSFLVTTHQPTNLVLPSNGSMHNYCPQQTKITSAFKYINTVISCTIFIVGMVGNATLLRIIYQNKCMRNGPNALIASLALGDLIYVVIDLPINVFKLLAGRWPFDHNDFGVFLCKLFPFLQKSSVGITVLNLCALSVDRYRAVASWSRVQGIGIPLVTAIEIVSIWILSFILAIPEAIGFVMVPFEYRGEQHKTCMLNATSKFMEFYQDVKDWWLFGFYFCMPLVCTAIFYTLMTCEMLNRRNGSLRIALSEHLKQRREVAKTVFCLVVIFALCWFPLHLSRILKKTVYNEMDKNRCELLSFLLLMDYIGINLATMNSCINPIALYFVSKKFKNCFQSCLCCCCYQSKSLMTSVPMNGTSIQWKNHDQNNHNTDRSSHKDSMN
Nature of the experiment: Radioligand binding assay, 125I Endothelin. To be noted: significance criteria ≧50% of max stimulation or inhibition. As for the experimental part:
as §1, §2

The mark [2] stands for this setting: concentrations as high as 20 µM.

T1 sequence (Q99500 whole entry): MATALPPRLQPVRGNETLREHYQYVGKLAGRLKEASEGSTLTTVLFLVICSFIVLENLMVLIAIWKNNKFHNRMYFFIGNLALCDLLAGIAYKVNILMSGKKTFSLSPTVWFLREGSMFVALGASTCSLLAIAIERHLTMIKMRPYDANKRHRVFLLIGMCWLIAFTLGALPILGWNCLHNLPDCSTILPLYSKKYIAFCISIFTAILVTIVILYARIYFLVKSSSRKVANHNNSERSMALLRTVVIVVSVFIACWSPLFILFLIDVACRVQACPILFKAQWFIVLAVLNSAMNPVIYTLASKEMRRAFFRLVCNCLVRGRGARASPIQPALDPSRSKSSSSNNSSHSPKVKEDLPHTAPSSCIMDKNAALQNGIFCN
T3 sequence (Q9H228 whole entry): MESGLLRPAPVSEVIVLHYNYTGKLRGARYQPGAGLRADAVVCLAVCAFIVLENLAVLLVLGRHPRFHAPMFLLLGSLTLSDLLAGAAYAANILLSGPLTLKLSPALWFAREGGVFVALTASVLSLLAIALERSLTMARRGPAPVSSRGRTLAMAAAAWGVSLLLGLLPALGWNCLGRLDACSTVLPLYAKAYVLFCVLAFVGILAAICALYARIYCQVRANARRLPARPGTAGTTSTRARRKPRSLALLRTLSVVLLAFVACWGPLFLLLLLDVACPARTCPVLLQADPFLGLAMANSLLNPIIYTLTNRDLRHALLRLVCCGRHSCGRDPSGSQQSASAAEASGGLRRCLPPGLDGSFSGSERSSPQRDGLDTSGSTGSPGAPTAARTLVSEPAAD

One may read the pIC50 as −log10 of the IC50, conventionally taken in molar units. Consider `CCOC(=O)c1c(NC(=O)NS(=O)(=O)c2ccccc2Cl)sc2c1CCCC2` [Compound 101], for which the negative-log IC50 (pIC50) on Edg-3, on Edg-6 and at Edg-8 was less than 4.70 each time. Further, the “inhibition of S1P-stimulated calcium increases, Edg-3” value at Edg-3 (setting [2]) is given as “did not inhibit”. Also, the “inhibition of S1P-stimulated calcium increases, Edg-6” value on Edg-6 (setting [2]) is on record as “did not inhibit”. Further, the “inhibition of S1P-stimulated calcium increases, Edg-8” value at Edg-8 (setting [2]) is given as “did not inhibit”. In experiment [1], the “activity in radioligand binding assay, Calcium Channels Type L, DHP” value is reported as “no significant activity”. Besides, on Endothelin ETA, the “activity in radioligand binding assay, Endothelin ETA” value is “no significant activity”.
